The text below walks through data of paper PMC6360136 (Investigational new drugs, 2018).

Counter-ions that a name gives are not always drawn.

The test system of one test is PANC-1 cells. The test can be described thus: Cell viability assay. Format: cell-based, human. The conditions noted are these: Homo sapiens, PANC-1, 48 h.
Another test deals with EC46 cells. The test can be described thus: Cell viability assay. Format: cell-based, human. The note with it: Homo sapiens, Pancreatic cancer cell, 48 h.
Another test relates to EC68 cells. The test can be described thus: Cell viability assay. It counts as cell-based, human. The note with it: Homo sapiens, Pancreatic cancer cell, 48 h.
In another test the test system is colon cancer xenograft. The note with it: colon cancer xenograft mice model, 0.25 mg/kg daily dosing ref 18, 19; cited from earlier work.

In the case of `C#Cc1cccc(Nc2ncnc3cc(OCCOC)c(OCCOC)cc23)c1` [erlotinib hydrochloride, reference compound], the IC50 in the test on PANC-1 cells amounted to 13.1 µM; in the test on EC46 cells, 2.41 µM; in the test with EC68 cells, 8.96 µM.
For `CC[C@H](C)[C@H]1C(=O)N2CCC[C@@H]2C(=O)O[C@H](C(C)(C)C)C[C@@H](C)C[C@H](O)C(C)(C)C2=N[C@@H](CCC(=O)N[C@@H](Cc3ccc(OC)cc3)C(=O)N(C)[C@@H](C)C(=O)N1C)CS2` [Apratoxin S8, apratoxin S8], the tumor growth entry in the test on colon cancer xenograft is listed as “significantly retarded tumor growth”.
